Tested on: β-lactamase (BlaZ) gene expression in S. aureus strain SHY97-4320
Experiment: BlaZ gene expression, real-time quantitative RT-PCR, and total RNA
Type: cell-based, Staphylococcus aureus
Method: Fresh MHB containing or not 8 μg/ml of penicillin G and/or 1 mg/ml of bovine LF (2×2 factorial design) was adjusted to an optical density at 540 nm of 0.04 with an overnight culture of S. aureus and then incubated at 37° C. with agitation (150 rpm). After 4 and 22-h of incubation, aliquots were removed to determine bacterial growth by viable count (colony forming unit per ml, cfu/ml), measuring the culture turbidity (OD540nm) with a spectrophotometer Philips PU and to measure β-lactamase activity in bacterial cells. Following culture under the same condition, bacterial cells were collected for RNA extraction.
Total bacterial RNA was prepared using the RNeasy minikit (Qiagen, Mississauga, ON, Canada). Washed bacteria were first treated with 50 μg/ml of lysostaphin (GramCracker, Ambion, Austin, Tex.) for 10 min at 37° C. and RNA was purified according to the manufacturer's protocol. Contaminating DNA was removed from total RNA by using 1 U of Rnase-free Dnase I (Gibco Life Technologies, Grand Island, N.Y.) in a 10 μl reaction mixture containing approximately 50 ng of total RNA per μl and 20mM Tris-HCl (pH 8.4), 2 mM MgCl2 and 50 mM KCl. The reaction mixture was incubated for 15 min at room temperature, and the Dnase I was inactivated by adding 1 μl of 25 mM EDTA to the mixture and incubating for 10 min at 65° C. before assessing quantity and purity. Amount of cellular RNA was then determined by measuring the OD260 nm and OD280 nm.
Real-Time fluorescence-based 5′ nuclease PCR which is a widely accepted method for measuring gene expression levels was used to quantify β-lactamase BlaZ RNA by RT-PCR on ABI Prism™ 7700 (TaqMan® ) sequence detector (PE Applied Biosystem, Foster City, Calif.). The forward primer, reverse.primer, and TaqMan probe for Real-Time RT-PCR amplification were designed with the PrimerExpress software (PE Applied Biosystem) to specifically amplify the. S. aureus BLAZ gene. Briefly, RNA (50 ng) was added to a 50 μl reaction mixture containing 25 μl of 2×RT-PCR One-Step Universal Master Mix, 1.25 μl of 40×MultiScribe and Rnase Inhibitor Mix, 4.5 μl of the forward primer (10 μM, 5′-[…]-3′, SEQ ID NO:3), 4.5 μl of the reverse primer (10 μM, 5′-[…]-3′, SEQ ID NO:4), and 1.25 μl of TaqMan probe (10 μM, 6FAM-[…]-TAMRA, SEQ ID NO:5). Reverse transcription with the recombinant Moloney Murine Leukemia Virus (M-MuLV) Reverse Transcriptase (0.25 U/μl) was conducted at 48° C. for 30 min. […] The cycle threshold value (CT), indicative of the quantity of target gene at which the fluorescence exceeds a pre-set threshold, was determined and compared to the CT of a standard curve containing known amounts of mRNA (1.1×10^2 to 1.1×10^9) from the BLAZ gene of S. aureus obtained by in vitro transcription. […]

**Q.** With CC1(C)S[C@@H]2[C@H](NC(=O)Cc3ccccc3)C(=O)N2[C@H]1C(=O)O [penicillin G, Penicillin G] as the compound, how does the “BlaZ total: total number of copies of BlaZ gene mRNA/ml of culture” value (LF 1 mg/ml and/or penicillin G) read?
**A.** 174.9 × 10^5 copies/ml of culture

**Q.** And the “BlaZ: number of copies of BlaZ gene mRNA/50 ng of mRNA” value (LF 1 mg/ml and/or penicillin G)?
**A.** 22.9 × 10^4 copies/50 ng of mRNA

**Q.** And the RNA (adjusted for an OD540nm of 1.0, LF 1 mg/ml and/or penicillin G)?
**A.** 3.22 ± 0.49 :g/ml

**Q.** And the “increase in the number of copies of the BlaZ mRNA per ml of culture” value (penicillin G added to the growth medium, P<0.01)?
**A.** 28 fold

— patent US20030134779A1, “Method and composition for treatment and/or prevention of antibiotic-resistant microorganism infections” (priority 2002, published 2003)
